In US6737383B1, “Herbicidal oxadiazolidines” (priority 1999, dated 2004):

Experiments:
duck salad = assay: Test B flood test duck salad; format: in vivo, Heteranthera limosa; details: for Plant response rating, Ducksalad (0 to 10 scale, 0 is no effect, 10 is complete control): Rate 62 g/ha
Summary of the method: (§1)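 Plants were grown to the 2-leaf stage before treatment with test chemical, then held in a greenhouse for twelve to sixteen days. Injury was visually rated against untreated controls on a 0–10 scale, where 0 is no effect and 10 is complete control.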

smallflower flatsedge = assay: Test B flood test smallflower flatsedge; format: in vivo, Cyperus difformis; details: for Plant response rating, S. Flatsedge (0 to 10 scale, 0 is no effect, 10 is complete control): Rate 62 g/ha
Description: (§2) At the same time, these crop and weed species were also treated with postemergence applications of test chemicals formulated in the same manner. Plants ranged in height from 2 to 18 cm (1- to 4-leaf stage) for postemergence treatments. Plant species in the flood test consisted of rice (Oryza sativa), smallflower flatsedge (Cyperus difformis), duck salad (Heteranthera limosa) and bamyardgrass (Echinochloa crus-galli) grown to the 2-leaf stage for testing. Treated plants and controls were maintained in a greenhouse for twelve to sixteen days, after which all species were compared to controls and visually evaluated. Plant response ratings, summarized in Table B, are based on a scale of 0 to 10 where 0 is no effect and 10 is complete control. A dash (−) response means no test result.

bamyardgrass = assay: Test B flood test barnyardgrass; format: in vivo, Echinochloa crus-galli; details: for Plant response rating, Barnyardgrass (0 to 10 scale, 0 is no effect, 10 is complete control): Rate 62 g/ha
Summary of the method: as §1

rice = assay: Test B flood test rice; format: in vivo, Oryza sativa; details: Pre-emergence
Description: as §2

cocklebur = assay: Test B pre/postemergence cocklebur; format: in vivo, Xanthium strumarium; details: Preemergence
Summary of the method: (§3)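 Test chemicals in a non-phytotoxic solvent mixture with surfactant were sprayed preemergence onto planted seeds and postemergence onto plants 2 to 18 cm tall (1- to 4-leaf stage). After twelve to sixteen days in a greenhouse, injury was visually rated against untreated controls from 0 (no effect) to 10 (complete control).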

wheat = assay: Test B pre/postemergence wheat; format: in vivo, Triticum aestivum; details: Preemergence
Summary of the method: as §3

velvetleaf = assay: Test B pre/postemergence velvetleaf; format: in vivo, Abutilon theophrasti; details: Preemergence
Summary of the method: as §3

crabgrass = assay: Test B pre/postemergence crabgrass; format: in vivo, Digitaria sanguinalis; details: Preemergence
Summary of the method: as §3

morningglory = assay: Test B pre/postemergence morningglory; format: in vivo, Ipomoea hederacea; details: Preemergence
Summary of the method: as §3

pigweed = assay: Test B pre/postemergence pigweed; format: in vivo, Amaranthus retroflexus; details: Preemergence
Summary of the method: as §3

surinam grass = assay: Test B pre/postemergence surinam grass; format: in vivo, Brachiaria decumbens; details: Preemergence
Summary of the method: as §3

soybean = assay: Test B pre/postemergence soybean; format: in vivo, Glycine max; details: Preemergence
Summary of the method: as §3

corn = assay: Test B pre/postemergence corn; format: in vivo, Zea mays; details: Preemergence
Summary of the method: as §3

giant foxtail = assay: Test B pre/postemergence giant foxtail; format: in vivo, Setaria faberii; details: Preemergence
Summary of the method: as §3

wild oat = assay: Test B pre/postemergence wild oat; format: in vivo, Avena fatua; details: Preemergence
Summary of the method: as §3

rape = assay: Test B pre/postemergence rape; format: in vivo, Brassica napus; details: Preemergence
Summary of the method: as §3

bedstraw = assay: Test B pre/postemergence bedstraw; format: in vivo, Galium aparine; details: Preemergence
Summary of the method: as §3

sugar beet = assay: Test B pre/postemergence sugar beet; format: in vivo, Beta vulgaris; details: Preemergence
Summary of the method: as §3

purple nutsedge = assay: Test B pre/postemergence purple nutsedge; format: in vivo, Cyperus rotundus; details: Preemergence
Summary of the method: as §3

blackgrass = assay: Test B pre/postemergence blackgrass; format: in vivo, Alopecurus myosuroides; details: Preemergence
Summary of the method: as §3

[1] = flood test species, Pre-emergence, visual evaluation after twelve to sixteen days
[2] = Rate 125 g/ha, Pre-emergence, flood test species, scale 0 to 10 where 0 is no effect and 10 is complete control
[3] = Rate 250 g/ha, Pre-emergence, flood-test species, scale 0 to 10, 0 is no effect, 10 is complete control
[4] = Rate 500 g/ha, Pre-emergence, flood test species, scale 0 to 10 (0 no effect, 10 complete control)
[5] = Rate 62 g/ha, scale of 0 to 10 where 0 is no effect and 10 is complete control
[6] = Rate 125 g/ha, scale of 0 to 10 where 0 is no effect and 10 is complete control
[7] = Rate 250 g/ha, scale 0 to 10 (0 no effect, 10 complete control)
[8] = Rate 500 g/ha, scale of 0 to 10 where 0 is no effect and 10 is complete control
[9] = Rate 125 g/ha, under heading Pre-emergence, flood test species, visual evaluation after twelve to sixteen days
[10] = Rate 250 g/ha, Pre-emergence (flood test species), scale 0 to 10, 0 is no effect, 10 is complete control
[11] = Rate 500 g/ha, Pre-emergence section of Table B, 0 to 10 scale (0 no effect, 10 complete control)

SMILES: Cc1cc(C)n(Cn2c(=O)on(C(=O)N(c3ccccc3)C(C)C)c2=O)n1 [Compound 346]
- Plant response rating, Ducksalad (0 to 10 scale, 0 is no effect, 10 is complete control) (duck salad; [1]): 0
- Ducksalad plant response rating (duck salad; [2]): 0
- Ducksalad plant response rating (duck salad; [3]): 0
- Ducksalad plant response rating (duck salad; [4]): 0
- Plant response rating, S. Flatsedge (0 to 10 scale, 0 is no effect, 10 is complete control) (smallflower flatsedge; [1]): 0
- S. Flatsedge plant response rating (smallflower flatsedge; [2]): 0
- S. Flatsedge plant response rating (smallflower flatsedge; [3]): 0
- S. Flatsedge plant response rating (smallflower flatsedge; [4]): 0
- Plant response rating, Barnyardgrass (0 to 10 scale, 0 is no effect, 10 is complete control) (bamyardgrass; [1]): 0
- Barnyardgrass plant response rating (bamyardgrass; [2]): 0
- Barnyardgrass plant response rating (bamyardgrass; [3]): 0
- Barnyardgrass plant response rating (bamyardgrass; [4]): 0
- Plant response rating, Rice (0 to 10 scale, 0 is no effect, 10 is complete control) (rice; Rate 62 g/ha, flood test species, visual evaluation after twelve to sixteen days): 0
- Rice plant response rating (rice; Rate 125 g/ha, flood test species, scale 0 to 10 where 0 is no effect and 10 is complete control): 0
- Rice plant response rating (rice; Rate 250 g/ha, flood-test species, scale 0 to 10, 0 is no effect, 10 is complete control): 0
- Rice plant response rating (rice; Rate 500 g/ha, flood test species, scale 0 to 10 (0 no effect, 10 complete control)): 0

SMILES: CCCCCCn1c(=O)on(C(=O)N(c2ccc(F)cc2F)C(C)C)c1=O [Compound 637]
- Cocklebur plant response rating (cocklebur; [5]): 0
- Cocklebur plant response rating (cocklebur; [6]): 0
- Plant response rating, Cocklebur (cocklebur; [7]): 0
- Plant response rating, Cocklebur (cocklebur; [8]): 0
- Wheat plant response rating (wheat; [5]): 0
- Wheat plant response rating (wheat; [6]): 0
- Plant response rating, Wheat (wheat; [7]): 0
- Plant response rating, Wheat (wheat; [8]): 0
- Velvetleaf plant response rating (velvetleaf; [5]): 0
- Velvetleaf plant response rating (velvetleaf; [6]): 0
- Plant response rating, Velvetleaf (velvetleaf; [7]): 0
- Plant response rating, Velvetleaf (velvetleaf; [8]): 2
- Crabgrass plant response rating (crabgrass; [5]): 9
- Crabgrass plant response rating (crabgrass; [6]): 9
- Plant response rating, Crabgrass (crabgrass; [7]): 10
- Plant response rating, Crabgrass (crabgrass; [8]): 10
- Morningglory plant response rating (morningglory; [5]): 0
- Morningglory plant response rating (morningglory; [6]): 0
- Plant response rating, Morningglory (morningglory; [7]): 0
- Plant response rating, Morningglory (morningglory; [8]): 0
- Plant response rating, Ducksalad (0 to 10 scale, 0 is no effect, 10 is complete control) (duck salad; [1]): 0
- Ducksalad plant response rating (0 to 10 scale, 0 is no effect, 10 is complete control) (duck salad; [9]): 0
- Ducksalad plant response rating (duck salad; [10]): 0
- Ducksalad plant response rating (duck salad; [11]): 0
- Redroot pigweed plant response rating (pigweed; [5]): 4
- Redroot pigweed plant response rating (pigweed; [6]): 9
- Plant response rating, Redroot pigweed (pigweed; [7]): 7
- Plant response rating, Redroot pigweed (pigweed; [8]): 10
- B. signalgrass plant response rating (surinam grass; [5]): 0
- B. signalgrass plant response rating (surinam grass; [6]): 3
- Plant response rating, B. signalgrass (surinam grass; [7]): 8
- Plant response rating, B. signalgrass (surinam grass; [8]): 8
- Soybean plant response rating (soybean; [5]): 0
- Soybean plant response rating (soybean; [6]): 0
- Plant response rating, Soybean (soybean; [7]): 0
- Plant response rating, Soybean (soybean; [8]): 0
- Corn plant response rating (corn; [5]): 0
- Corn plant response rating (corn; [6]): 0
- Plant response rating, Corn (corn; [7]): 0
- Plant response rating, Corn (corn; [8]): 0
- Giant foxtail plant response rating (giant foxtail; [5]): 9
- Giant foxtail plant response rating (giant foxtail; [6]): 10
- Plant response rating, Giant foxtail (giant foxtail; [7]): 10
- Plant response rating, Giant foxtail (giant foxtail; [8]): 10
- Wild oats plant response rating (wild oat; [5]): 0
- Wild oats plant response rating (wild oat; [6]): 0
- Plant response rating, Wild oats (wild oat; [7]): 0
- Plant response rating, Wild oats (wild oat; [8]): 3
- Plant response rating, S. Flatsedge (0 to 10 scale, 0 is no effect, 10 is complete control) (smallflower flatsedge; [1]): 0
- S. Flatsedge plant response rating (0 to 10 scale, 0 is no effect, 10 is complete control) (smallflower flatsedge; [9]): 0
- S. Flatsedge plant response rating (smallflower flatsedge; [10]): 0
- S. Flatsedge plant response rating (smallflower flatsedge; [11]): 0
- Plant response rating, Barnyardgrass (0 to 10 scale, 0 is no effect, 10 is complete control) (bamyardgrass; [1]): 0
- Barnyardgrass plant response rating (0 to 10 scale, 0 is no effect, 10 is complete control) (bamyardgrass; [9]): 0
- Barnyardgrass plant response rating (bamyardgrass; [10]): 0
- Barnyardgrass plant response rating (bamyardgrass; [11]): 0
- Rape plant response rating (rape; [5]): 0
- Rape plant response rating (rape; [6]): 0
- Plant response rating, Rape (rape; [7]): 2
- Plant response rating, Rape (rape; [8]): 3
- Bedstraw plant response rating (bedstraw; [5]): 0
- Bedstraw plant response rating (bedstraw; [6]): 0
- Plant response rating, Bedstraw (bedstraw; [7]): 2
- Plant response rating, Bedstraw (bedstraw; [8]): 4
- Sugarbeets plant response rating (sugar beet; [5]): 0
- Sugarbeets plant response rating (sugar beet; [6]): 0
- Plant response rating, Sugarbeets (sugar beet; [7]): 3
- Plant response rating, Sugarbeets (sugar beet; [8]): 5
- Nutsedge plant response rating (purple nutsedge; [5]): 0
- Nutsedge plant response rating (purple nutsedge; [6]): 0
- Plant response rating, Nutsedge (purple nutsedge; [7]): 0
- Plant response rating, Nutsedge (purple nutsedge; [8]): 0
- Blackgrass plant response rating (blackgrass; [5]): 2
- Blackgrass plant response rating (blackgrass; [6]): 3
- Plant response rating, Blackgrass (blackgrass; [7]): 9
- Plant response rating, Blackgrass (blackgrass; [8]): 9
